Drawing on the supplement of paper PMC9780213, this text covers cell count for four molecules.

Holding throughout (conditions): treatment time: 24 h
One assay concerns U2OS-mOrange2-Peroxisome. The assay is described as follows: cell count relative to DMSO control (panel B, lysosome/peroxisome/lipid stain) (fraction of control); higher = more cells (less toxicity). The method, then:
(§1)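 U2OS-derived cells in 384-well plates were treated for 24 h with a 7-point 2-fold dilution series (top dose 20 µM for most compounds; final max DMSO 1%), then fixed, stained in four marker panels and imaged on a Cellomics ArrayScan. Cell count per treatment (three replicate plates merged) is given as a fraction of DMSO control. Panel A used parental U2OS, panel B U2OS-mOrange2-Peroxisome, panel C1 U2OS-LMNB1-TUBA1B-ACTB (DRAQ5 nuclei).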

Another assay has as its system U2OS-LMNB1-TUBA1B-ACTB. The assay is described as follows: cell count relative to DMSO control (panel C1, DRAQ5/ER stain) (fraction of control); higher = more cells (less toxicity). As for the experimental part:
as §1

The next assay has as its system U2OS. In words: cell count relative to DMSO control (panel A, nuclei/RNA/PMG/mitochondria stain) (fraction of control); higher = more cells (less toxicity). As for the experimental part: as §1

Turning to `CC[C@@]1([C@@H]2O[C@@H]([C@H]3O[C@@](O)(CO)[C@H](C)C[C@@H]3C)C[C@@H]2C)CC[C@H]([C@]2(C)CC[C@]3(C[C@H](O)[C@@H](C)[C@@H]([C@@H](C)[C@@H](OC)[C@H](C)C(=O)O)O3)O2)O1` [monensin], the cell count was found to be 0.691 in the assay with U2OS-mOrange2-Peroxisome (0.3125 µM); 0.713 in the assay on U2OS-mOrange2-Peroxisome (0.625 µM); 0.78 with U2OS-mOrange2-Peroxisome (1.25 µM); 0.617 in the assay on U2OS-mOrange2-Peroxisome (2.5 µM); 0.617 in the assay on U2OS-mOrange2-Peroxisome (5 µM); 0.641 with U2OS-mOrange2-Peroxisome (10 µM). The cell count worked out at 0.633 in the assay with U2OS-mOrange2-Peroxisome (20 µM); 0.932 in the assay with U2OS-LMNB1-TUBA1B-ACTB (0.3125 µM); 0.699 in the assay with U2OS-LMNB1-TUBA1B-ACTB (0.625 µM); 0.642 in the assay with U2OS-LMNB1-TUBA1B-ACTB (1.25 µM); 0.412 in the assay with U2OS-LMNB1-TUBA1B-ACTB (2.5 µM); 0.421 in the assay on U2OS-LMNB1-TUBA1B-ACTB (5 µM). Moreover, the cell count in the assay with U2OS-LMNB1-TUBA1B-ACTB (10 µM) was found to be 0.406; with U2OS-LMNB1-TUBA1B-ACTB (20 µM), 0.418; with U2OS (0.3125 µM), 0.746; in the assay on U2OS (0.625 µM), 0.606; in the assay with U2OS (1.25 µM), 0.504; in the assay with U2OS (2.5 µM), 0.422. In addition, the cell count was 0.375 with U2OS (5 µM), 0.339 in the assay on U2OS (10 µM) and 0.332 in the assay with U2OS (20 µM).

With `COC(=O)Nc1nc2ccc(C(=O)c3cccs3)cc2[nH]1` [nocodazole], the cell count turned out to be 0.837 in the assay on U2OS-mOrange2-Peroxisome (0.3125 µM); 0.656 in the assay on U2OS-mOrange2-Peroxisome (0.625 µM); 0.775 in the assay on U2OS-mOrange2-Peroxisome (1.25 µM); 0.628 in the assay with U2OS-mOrange2-Peroxisome (2.5 µM); 0.411 in the assay with U2OS-mOrange2-Peroxisome (5 µM); 0.425 in the assay with U2OS-mOrange2-Peroxisome (10 µM). Also, the cell count worked out at 0.381 in the assay on U2OS-mOrange2-Peroxisome (20 µM); 1.12 in the assay on U2OS-LMNB1-TUBA1B-ACTB (0.3125 µM); 0.993 in the assay on U2OS-LMNB1-TUBA1B-ACTB (0.625 µM); 1.01 with U2OS-LMNB1-TUBA1B-ACTB (1.25 µM); 0.999 with U2OS-LMNB1-TUBA1B-ACTB (2.5 µM); 0.737 with U2OS-LMNB1-TUBA1B-ACTB (5 µM). In addition, the cell count was 0.414 with U2OS-LMNB1-TUBA1B-ACTB (10 µM); 0.369 in the assay on U2OS-LMNB1-TUBA1B-ACTB (20 µM); 1.06 in the assay on U2OS (0.3125 µM); 0.962 in the assay with U2OS (0.625 µM); 1.03 in the assay with U2OS (1.25 µM); 0.792 in the assay on U2OS (2.5 µM). Also, the values for the cell count in the assay with U2OS (5 µM), in the assay on U2OS (10 µM) and in the assay with U2OS (20 µM) were 0.692, 0.317 and 0.196, respectively.

As to `CC[C@H]1/C=C/C=C/C[C@@H](C)[C@H](O)[C@@](C)(O)C(=O)[C@@H](C)[C@H](O)[C@@H](C)C(=O)[C@@H](C)[C@H](O)[C@@H](C)/C=C/C(=O)O[C@@H]2[C@H](C)[C@H](CC1)O[C@]1(CC[C@H](C)[C@H](C[C@@H](C)O)O1)[C@H]2C` [oligomycin-a], the cell count in the assay on U2OS-mOrange2-Peroxisome (0.15625 µM) is 0.52; with U2OS-mOrange2-Peroxisome (0.3125 µM) it was 0.906; with U2OS-mOrange2-Peroxisome (0.625 µM), 0.944; in the assay on U2OS-mOrange2-Peroxisome (1.25 µM) it was 0.895; in the assay on U2OS-mOrange2-Peroxisome (2.5 µM), 0.858; in the assay on U2OS-mOrange2-Peroxisome (5 µM) it was 1.21. Further, the cell count with U2OS-mOrange2-Peroxisome (10 µM) was determined as 1.09; in the assay with U2OS-LMNB1-TUBA1B-ACTB (0.15625 µM) it was 0.621; in the assay with U2OS-LMNB1-TUBA1B-ACTB (0.3125 µM), 1.03; in the assay with U2OS-LMNB1-TUBA1B-ACTB (0.625 µM) it was 1.07; in the assay with U2OS-LMNB1-TUBA1B-ACTB (1.25 µM), 1; with U2OS-LMNB1-TUBA1B-ACTB (2.5 µM), 1.03. Moreover, the cell count in the assay on U2OS-LMNB1-TUBA1B-ACTB (5 µM) amounted to 1.09; in the assay on U2OS-LMNB1-TUBA1B-ACTB (10 µM), 1.05; in the assay with U2OS (0.15625 µM) it was 0.555; with U2OS (0.3125 µM), 0.986; with U2OS (0.625 µM), 0.995; in the assay on U2OS (1.25 µM) it was 1.04. In addition, the results for the cell count in the assay with U2OS (2.5 µM), in the assay on U2OS (5 µM) and with U2OS (10 µM) were 0.938, 0.99 and 0.925, respectively.

Turning to `CC(=O)O[C@H]1C(=O)[C@@]2(C)[C@H]([C@H](OC(=O)c3ccccc3)[C@]3(O)C[C@H](OC(=O)[C@H](O)[C@@H](NC(=O)c4ccccc4)c4ccccc4)C(C)=C1C3(C)C)[C@]1(OC(C)=O)CO[C@@H]1C[C@@H]2O` [paclitaxel], the cell count in the assay on U2OS-mOrange2-Peroxisome (0.3125 µM) amounted to 0.878; in the assay with U2OS-mOrange2-Peroxisome (0.625 µM) it was 0.695; in the assay with U2OS-mOrange2-Peroxisome (1.25 µM), 0.709; in the assay with U2OS-mOrange2-Peroxisome (2.5 µM), 0.787; with U2OS-mOrange2-Peroxisome (5 µM), 0.849; in the assay on U2OS-mOrange2-Peroxisome (10 µM) it was 0.843. For the same molecule, the cell count stood at 1.14 in the assay with U2OS-mOrange2-Peroxisome (20 µM); 1.04 in the assay on U2OS-LMNB1-TUBA1B-ACTB (0.3125 µM); 1.09 in the assay with U2OS-LMNB1-TUBA1B-ACTB (0.625 µM); 1.08 in the assay on U2OS-LMNB1-TUBA1B-ACTB (1.25 µM); 1.05 in the assay with U2OS-LMNB1-TUBA1B-ACTB (2.5 µM); 0.93 in the assay on U2OS-LMNB1-TUBA1B-ACTB (5 µM). Moreover, the cell count stood at 1.14 in the assay with U2OS-LMNB1-TUBA1B-ACTB (10 µM); 0.992 in the assay with U2OS-LMNB1-TUBA1B-ACTB (20 µM); 0.956 in the assay on U2OS (0.3125 µM); 1.05 in the assay on U2OS (0.625 µM); 0.97 in the assay on U2OS (1.25 µM); 0.928 with U2OS (2.5 µM). For the same molecule, the cell count in the assay on U2OS (5 µM) came to 1.04; in the assay on U2OS (10 µM), 1; with U2OS (20 µM) it was 1.
